Holding throughout (type): cell-based
In assay [1] the test system is E. coli. The assay can be described thus: Growth curve analysis (A600). As to conditions: at IC50 concentration (13 μM). The source says: (§1) This is typically indicative of biofilm inhibition via a traditional microbicidal mechanism instead of a mechanism that modulates biofilm formation through non-microbicidal mechanisms. […] At this concentration, a 97% reduction in bacterial growth was observed.

Assay [2] concerns E. coli. The assay can be described thus: Biofilm formation inhibition, crystal violet reporter assay. As to conditions: Escherichia coli. The protocol: (§2) The ability of each member of the pilot library to inhibit either E. coli or MDRAB biofilm formation at 100 μM was assessed using a crystal violet reporter assay (O'Toole et al., Mol. Microbiol., 1998, 30: 295-304).
as §1

Assay [3] concerns MDRAB. The description is as above. The protocol:
as §2

A word on the inhibition: it is the change of the read-out against control, counted positive when it falls. A high value points to a strong effect. One may read the IC50 as the point on the concentration scale where inhibition reaches its midpoint. The low end stands for greater potency, the high end for weaker potency. For the molecule `CCCCCc1[nH]c(N)nc1CCCCCc1ccccc1` [Compound 15, 5-pentyl-4-(5-phenylpentyl)-1H-imidazol-2-amine], in assay [1], the “reduction in bacterial growth” value turned out to be 97%. Moreover, the figures for the inhibition at 100 µM in assay [2] (100 μM) and in assay [3] were 83 ± 0.8% and 80.3 ± 8.1%, respectively. The molecule also came in with an IC50 in assay [2] (dose-response) of 13 µM.

(Values after patent US9815794B2, “Inhibition of bacterial biofilms and microbial growth with imidazole derivatives” (North Carolina State University, priority 2011, dated 2017).)
